Measured values taken from US20230055237A1, “COMPOUNDS AND METHODS FOR THE TREATMENT OF CYSTIC FIBROSIS” (Flatley Discovery Lab, LLC, priority 2019, published 2023).

Target: T1, CFTR (Homo sapiens, UniProt P13569, DEL508-508)
T1 construct: Primary CF airway epithelial cells were obtained from the UNC Cystic Fibrosis Tissue Procurement and Cell Culture Core; host or cells: primary CF airway epithelial cells, differentiated at the air-liquid interface
Assay: Equivalent current assay in primary CF airway epithelial cells (NAUC, combination with 1st site corrector FDL169 or VX-809)
Format: cell-based
Conditions: 37° C., 24 h

[1] = test compound 1 μM in combination with 1st site corrector FDL169 (3 μM)
[2] = test compound 3 μM in combination with 1st site corrector FDL169 (3 μM)
[3] = test compound 10 μM in combination with 1st site corrector FDL169 (3 μM)

T1 sequence (P13569 with tags, fused parts or gaps DEL508-508): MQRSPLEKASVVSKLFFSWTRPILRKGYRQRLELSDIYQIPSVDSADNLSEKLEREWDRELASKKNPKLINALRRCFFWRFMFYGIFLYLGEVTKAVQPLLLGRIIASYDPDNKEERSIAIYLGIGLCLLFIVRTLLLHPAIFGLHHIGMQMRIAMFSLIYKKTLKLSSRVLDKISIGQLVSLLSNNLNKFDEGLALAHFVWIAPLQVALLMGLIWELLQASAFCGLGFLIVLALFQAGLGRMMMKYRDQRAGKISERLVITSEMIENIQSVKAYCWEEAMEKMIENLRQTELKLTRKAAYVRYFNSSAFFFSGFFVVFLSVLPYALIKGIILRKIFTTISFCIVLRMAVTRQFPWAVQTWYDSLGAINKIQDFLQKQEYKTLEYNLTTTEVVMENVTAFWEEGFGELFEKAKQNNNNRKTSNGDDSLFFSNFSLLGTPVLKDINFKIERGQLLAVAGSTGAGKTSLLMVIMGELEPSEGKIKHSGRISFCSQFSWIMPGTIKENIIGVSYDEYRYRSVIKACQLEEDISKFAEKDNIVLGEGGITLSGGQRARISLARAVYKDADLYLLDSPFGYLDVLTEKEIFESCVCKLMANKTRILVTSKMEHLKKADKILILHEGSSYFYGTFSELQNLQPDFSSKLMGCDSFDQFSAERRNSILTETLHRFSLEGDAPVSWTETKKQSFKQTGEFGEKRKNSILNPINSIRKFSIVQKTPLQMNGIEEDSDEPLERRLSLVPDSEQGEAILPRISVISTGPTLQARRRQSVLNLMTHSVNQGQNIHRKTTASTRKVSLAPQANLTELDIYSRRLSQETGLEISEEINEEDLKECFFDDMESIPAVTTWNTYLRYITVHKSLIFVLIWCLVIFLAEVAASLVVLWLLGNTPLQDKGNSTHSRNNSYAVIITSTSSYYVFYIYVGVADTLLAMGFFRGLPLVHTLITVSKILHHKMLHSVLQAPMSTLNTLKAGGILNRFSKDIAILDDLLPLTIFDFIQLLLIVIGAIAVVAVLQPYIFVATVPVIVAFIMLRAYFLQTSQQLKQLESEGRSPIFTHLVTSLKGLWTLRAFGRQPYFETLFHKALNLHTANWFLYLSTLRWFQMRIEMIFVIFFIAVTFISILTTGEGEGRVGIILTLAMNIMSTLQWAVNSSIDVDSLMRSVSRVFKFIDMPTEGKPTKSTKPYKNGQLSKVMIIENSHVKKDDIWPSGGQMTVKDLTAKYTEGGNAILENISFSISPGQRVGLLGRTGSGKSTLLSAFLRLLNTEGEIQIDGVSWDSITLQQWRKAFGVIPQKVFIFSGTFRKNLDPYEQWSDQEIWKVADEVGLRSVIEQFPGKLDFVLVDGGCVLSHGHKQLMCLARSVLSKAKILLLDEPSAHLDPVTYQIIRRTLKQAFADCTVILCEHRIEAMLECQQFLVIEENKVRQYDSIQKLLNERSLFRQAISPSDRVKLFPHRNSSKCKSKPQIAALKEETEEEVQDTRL

| Structure (SMILES) | Nauc @ 1 μM [1] | Nauc @ 3 μM [2] | Nauc @ 10 μM [3] | Nauc @ 1 μM (test compound 1 μM in combination with 1st site corrector VX-809 (3 μM)) | Nauc @ 3 μM (test compound 3 μM in combination with 1st site corrector VX-809 (3 μM)) | Nauc @ 10 μM (test compound 10 μM in combination with 1st site corrector VX-809 (3 μM)) |
| --- | --- | --- | --- | --- | --- | --- |
| CC(C)CN(C(=O)[C@H]1[C@H]2CC(F)(F)CN2[C@]2(C(=O)Nc3c(Cl)cc(Cl)cc32)[C@H]1C(=O)O)c1cc(Cl)cc(Cl)c1 [Example 151] | +++ (NAUC “+++” refers to an observed NAUC>170% of positive control) | +++ (NAUC “+++” refers to an observed NAUC>170% of positive control) | ++ (NAUC “++” refers to an observed NAUC 170-140% of positive control) | – | – | – |
| O=C(O)[C@H]1[C@@H](C(=O)N(c2cc(Cl)cc(Cl)c2)C2CCC2)[C@H]2CC(F)(F)CN2[C@]12C(=O)Nc1c(Cl)cc(Cl)cc12 [Example 152] | +++ (NAUC “+++” refers to an observed NAUC>170% of positive control) | +++ (NAUC “+++” refers to an observed NAUC>170% of positive control) | ++ (NAUC “++” refers to an observed NAUC 170-140% of positive control) | – | – | – |
| CN(C)C(=O)CN(C(=O)[C@H]1[C@H]2CC(F)(F)CN2[C@]2(C(=O)Nc3c(Cl)cc(Cl)cc32)[C@H]1C(=O)O)c1cc(Cl)cc(Cl)c1 [Example 153] | + (NAUC “+” refers to an observed NAUC <140% of positive control) | + (NAUC “+” refers to an observed NAUC <140% of positive control) | – | – | – | – |
| CC(C)(CN(C(=O)[C@H]1[C@H]2CC(F)(F)CN2[C@]2(C(=O)Nc3c(Cl)cc(Cl)cc32)[C@H]1C(=O)O)c1cc(Cl)cc(Cl)c1)C(F)(F)F [Example 154] | +++ (NAUC “+++” refers to an observed NAUC>170% of positive control) | +++ (NAUC “+++” refers to an observed NAUC>170% of positive control) | + (NAUC “+” refers to an observed NAUC <140% of positive control) | – | – | – |
| O=C(O)[C@H]1[C@@H](C(=O)N(CC2(C(F)(F)F)CC2)c2cc(Cl)cc(Cl)c2)[C@H]2CC(F)(F)CN2[C@]12C(=O)Nc1c(Cl)cc(Cl)cc12 [Example 155] | +++ (NAUC “+++” refers to an observed NAUC>170% of positive control) | +++ (NAUC “+++” refers to an observed NAUC>170% of positive control) | + (NAUC “+” refers to an observed NAUC <140% of positive control) | – | – | – |
| O=C(O)[C@H]1[C@@H](C(=O)N(CC2CC2)c2cccc(-c3ccccc3)c2)[C@H]2CC(F)(F)CN2[C@]12C(=O)Nc1c(Cl)cc(Cl)cc12 [Example 156] | +++ (NAUC “+++” refers to an observed NAUC>170% of positive control) | +++ (NAUC “+++” refers to an observed NAUC>170% of positive control) | ++ (NAUC “++” refers to an observed NAUC 170-140% of positive control) | – | – | – |
| CN(C(=O)[C@H]1[C@H]2CC(F)(F)CN2[C@]2(C(=O)Nc3c(Cl)cc(Cl)cc32)[C@H]1C(=O)O)c1cccc(C(F)(F)F)c1 [Example 157] | ++ (NAUC “++” refers to an observed NAUC 170-140% of positive control) | ++ (NAUC “++” refers to an observed NAUC 170-140% of positive control) | – | – | – | – |
| O=C(O)[C@H]1[C@@H](C(=O)N(c2cc(Cl)cc(Cl)c2)C2CC(O)C2)[C@H]2CC(F)(F)CN2[C@]12C(=O)Nc1c(Cl)cc(Cl)cc12 (stereo partly drawn) [Example 158] | + (NAUC “+” refers to an observed NAUC <140% of positive control) | + (NAUC “+” refers to an observed NAUC <140% of positive control) | – | – | – | – |
| O=C(O)[C@H]1[C@@H](C(=O)N(c2cc(Cl)cc(Cl)c2)C2CC(O)C2)[C@H]2CC(F)(F)CN2[C@]12C(=O)Nc1c(Cl)cc(Cl)cc12 (stereo partly drawn) [Example 159] | + (NAUC “+” refers to an observed NAUC <140% of positive control) | + (NAUC “+” refers to an observed NAUC <140% of positive control) | – | – | – | – |
| CN(C)CCN(C(=O)[C@H]1[C@H]2CC(F)(F)CN2[C@]2(C(=O)Nc3c(Cl)cc(Cl)cc32)[C@H]1C(=O)O)c1cc(Cl)cc(Cl)c1 [Example 160] | + (NAUC “+” refers to an observed NAUC <140% of positive control) | + (NAUC “+” refers to an observed NAUC <140% of positive control) | – | – | – | – |
| CN(C(=O)[C@H]1[C@H]2CC(F)(F)CN2[C@]2(C(=O)Nc3c(Cl)cc(Cl)cc32)[C@H]1C(=O)O)c1cccc(-c2ccccc2)c1 [Example 161] | ++ (NAUC “++” refers to an observed NAUC 170-140% of positive control) | +++ (NAUC “+++” refers to an observed NAUC>170% of positive control) | ++ (NAUC “++” refers to an observed NAUC 170-140% of positive control) | – | – | – |
| CN(C(=O)[C@H]1[C@H]2CC(F)(F)CN2[C@]2(C(=O)Nc3c(Cl)cc(Cl)cc32)[C@H]1C(=O)O)c1ccccc1-c1ccccc1 [Example 162] | +++ (NAUC “+++” refers to an observed NAUC>170% of positive control) | +++ (NAUC “+++” refers to an observed NAUC>170% of positive control) | +++ (NAUC “+++” refers to an observed NAUC>170% of positive control) | – | – | – |
| O=C(O)[C@H]1[C@@H](C(=O)N(CC2CC2)c2cccc(C(F)(F)F)c2)[C@H]2CC(F)(F)CN2[C@]12C(=O)Nc1c(Cl)cc(Cl)cc12 [Example 163] | +++ (NAUC “+++” refers to an observed NAUC>170% of positive control) | +++ (NAUC “+++” refers to an observed NAUC>170% of positive control) | ++ (NAUC “++” refers to an observed NAUC 170-140% of positive control) | – | – | – |
| O=C(O)[C@H]1[C@@H](C(=O)N(CC2CC2)c2cccc(CC(F)(F)F)c2)[C@H]2CC(F)(F)CN2[C@]12C(=O)Nc1c(Cl)cc(Cl)cc12 [Example 164] | +++ (NAUC “+++” refers to an observed NAUC>170% of positive control) | +++ (NAUC “+++” refers to an observed NAUC>170% of positive control) | +++ (NAUC “+++” refers to an observed NAUC>170% of positive control) | – | – | – |
| Cc1nn(C)cc1N(CC1CC1)C(=O)[C@H]1[C@H]2CC(F)(F)CN2[C@]2(C(=O)Nc3c(Cl)cc(Cl)cc32)[C@H]1C(=O)O [Example 165] | + (NAUC “+” refers to an observed NAUC <140% of positive control) | + (NAUC “+” refers to an observed NAUC <140% of positive control) | – | – | – | – |
| Cn1cc(N(CC2CC2)C(=O)[C@H]2[C@H]3CC(F)(F)CN3[C@]3(C(=O)Nc4c(Cl)cc(Cl)cc43)[C@H]2C(=O)O)c(C(F)(F)F)n1 [Example 166] | + (NAUC “+” refers to an observed NAUC <140% of positive control) | + (NAUC “+” refers to an observed NAUC <140% of positive control) | – | – | – | – |
| Cc1nn(-c2ccccc2)cc1N(CC1CC1)C(=O)[C@H]1[C@H]2CC(F)(F)CN2[C@]2(C(=O)Nc3c(Cl)cc(Cl)cc32)[C@H]1C(=O)O [Example 167] | + (NAUC “+” refers to an observed NAUC <140% of positive control) | + (NAUC “+” refers to an observed NAUC <140% of positive control) | – | – | – | – |
| Cn1cc(N(CC2CC2)C(=O)[C@H]2[C@H]3CC(F)(F)CN3[C@]3(C(=O)Nc4c(Cl)cc(Cl)cc43)[C@H]2C(=O)O)c(C#N)n1 [Example 168] | + (NAUC “+” refers to an observed NAUC <140% of positive control) | + (NAUC “+” refers to an observed NAUC <140% of positive control) | – | – | – | – |
| CN(C(=O)[C@H]1[C@H]2CC(F)(F)CN2[C@]2(C(=O)Nc3c(Cl)cc(Cl)cc32)[C@H]1C(=O)O)c1cc(Cl)cc(Cl)c1 [Example 169] | ++ (NAUC “++” refers to an observed NAUC 170-140% of positive control) | +++ (NAUC “+++” refers to an observed NAUC>170% of positive control) | +++ (NAUC “+++” refers to an observed NAUC>170% of positive control) | – | – | – |
| CN(CC(C)(C)c1cccc(C(C)(C)C)c1)C(=O)[C@H]1[C@H]2CC(F)(F)CN2[C@]2(C(=O)Nc3c(Cl)cc(Cl)cc32)[C@H]1C(=O)O [Example 170] | – | – | – | +++ (NAUC “+++” refers to an observed NAUC>170% of positive control) | + (NAUC “+” refers to an observed NAUC <140% of positive control) | + (NAUC “+” refers to an observed NAUC <140% of positive control) |
| CCN(C(=O)[C@H]1[C@H]2CC(F)(F)CN2[C@]2(C(=O)Nc3c(Cl)cc(Cl)cc32)[C@H]1C(=O)O)c1cc(Cl)cc(Cl)c1 [Example 171] | +++ (NAUC “+++” refers to an observed NAUC>170% of positive control) | +++ (NAUC “+++” refers to an observed NAUC>170% of positive control) | +++ (NAUC “+++” refers to an observed NAUC>170% of positive control) | – | – | – |
| CCCN(C(=O)[C@H]1[C@H]2CC(F)(F)CN2[C@]2(C(=O)Nc3c(Cl)cc(Cl)cc32)[C@H]1C(=O)O)c1cc(Cl)cc(Cl)c1 [Example 172] | +++ (NAUC “+++” refers to an observed NAUC>170% of positive control) | +++ (NAUC “+++” refers to an observed NAUC>170% of positive control) | +++ (NAUC “+++” refers to an observed NAUC>170% of positive control) | – | – | – |
